Data reported in patent publication US20090221655A1, “ANTIBACTERIAL AGENTS” (Pitzer, Inc., priority 2006, published 2009).
≈ marks a conversion by molar mass, not a printed value.

Columns and labels:
Format in all cases: cell-based
S. aureus UC-76 SA-1 = experiment: in vitro antibacterial activity (MIC), S. aureus; conditions: Staphylococcus aureus, UC76; strain UC-76 SA-1; MIC = lowest concentration preventing macroscopically visible growth; read-out: in vitro antibacterial activity MIC5 S. aureus UC-76 SA-1
Source text: (§1) The in vitro antibacterial activity of the compounds of the present invention may be assessed by following procedures recommended in (1) National Committee for Clinical Laboratory Standards (January 2003), Methods for dilution antimicrobial tests for bacteria that grow aerobically, Approved Standard (6th ed), M7-A6, NCCLS, Wayne, Pa.; (2) National Committee for Clinical Laboratory Standards (March 2001), Methods for antimicrobial susceptibility testing of anaerobic bacteria, Approved Standard (5th ed), M11-A4, NCCLS, Wayne, Pa.; (3) National Committee for Clinical Laboratory Standards (Jan. 2003), MIC testing supplemental tables, M100-S13 (for use with M7-A6), NCCLS, Wayne, Pa.; and (4) Murray P R, Baron E J, Jorgensen J H, et al. Manual of Clinical Microbiology (8th ed) Washington, D.C.: American Society for Microbiology Press, 2003. The antibacterial activity can be presented in the form of MIC value. The MIC value is the lowest concentration of drug, which prevented macroscopically visible growth under the conditions of the test.

S. pneumoniae SV1 SP-3 = experiment: in vitro antibacterial activity (MIC), S. pneumoniae; conditions: Streptococcus pneumoniae, SV1SP3; strain SV1 SP-3; MIC = lowest concentration preventing macroscopically visible growth; read-out: in vitro antibacterial activity MIC5 S. pneumoniae SV1 SP-3
Source text: as §1

E. faecalis MGH-2 EF 1-1 = experiment: in vitro antibacterial activity (MIC), E. faecalis; conditions: Enterococcus faecalis, MGH2EF11; strain MGH-2 EF 1-1; MIC = lowest concentration preventing macroscopically visible growth; read-out: in vitro antibacterial activity MIC5 E. faecalis MGH-2 EF 1-1
Source text: as §1

Row | MIC (S. aureus UC-76 SA-1) [µg/mL] | MIC (S. pneumoniae SV1 SP-3) [µg/mL] | MIC (E. faecalis MGH-2 EF 1-1) [µg/mL] | Compound
1 | 2 (≈ 6.91 µM) | 1 (≈ 3.46 µM) | 2 (≈ 6.91 µM) | CC(=O)NC[C@H]1CN(c2ccc3c(C)noc3c2)C(=O)O1 [Example 1, (S)—N-[3-(3-methyl-benzo[d]isoxazol-6-yl)-2-oxo-oxazolidin-5-ylmethyl]-acetamide]
2 | 2 (≈ 6.59 µM) | 2 (≈ 6.59 µM) | 4 (≈ 13.2 µM) | CCC(=O)NC[C@H]1CN(c2ccc3c(C)noc3c2)C(=O)O1 [Example 2, (S)—N-[3-(3-methyl-benzo[d]isoxazol-6-yl)-2-oxo-oxazolidin-5-ylmethyl]-propionamide]
3 | 4 (≈ 13.1 µM) | 2 (≈ 6.55 µM) | 4 (≈ 13.1 µM) | COC(=O)NC[C@H]1CN(c2ccc3c(C)noc3c2)C(=O)O1 [Example 3, (S)-[3-(3-methyl-benzo[d]isoxazol-6-yl)-2-oxo-oxazolidin-5-ylmethyl]-carbamic acid methyl ester]
4 | 4 (≈ 13.4 µM) | 2 (≈ 6.68 µM) | 4 (≈ 13.4 µM) | Cc1noc2cc(N3C[C@H](Cn4ccnn4)OC3=O)ccc12 [Example 4, (R)-3-(3-methyl-benzo[d]isoxazol-6-yl)-5-[1,2,3]triazol-1-ylmethyl-oxazolidin-2-one]
5 | 4 (≈ 15.3 µM) | 4 (≈ 15.3 µM) | 8 (≈ 30.6 µM) | Cc1noc2cc(N3C[C@H](C(N)=O)OC3=O)ccc12 [Example 6, (R)-3-(3-methyl-benzo[d]isoxazol-6-yl)-2-oxo-oxazolidine-5-carboxylic acid amide]
6 | 4 (≈ 14.5 µM) | 4 (≈ 14.5 µM) | 4 (≈ 14.5 µM) | CNC(=O)[C@H]1CN(c2ccc3c(C)noc3c2)C(=O)O1 [Example 7, (R)-3-(3-methyl-benzo[d]isoxazol-6-yl)-2-oxo-oxazolidine-5-carboxylic acid methylamide]
7 | 4 (≈ 13.7 µM) | 8 (≈ 27.5 µM) | 4 (≈ 13.7 µM) | CONC(=O)[C@H]1CN(c2ccc3c(C)noc3c2)C(=O)O1 [Example 8, (R)-3-(3-methyl-benzo[d]isoxazol-6-yl)-2-oxo-oxazolidine-5-carboxylic acid methoxy-amide]
8 | 4 (≈ 13.1 µM) | 8 (≈ 26.2 µM) | 4 (≈ 13.1 µM) | CCONC(=O)[C@H]1CN(c2ccc3c(C)noc3c2)C(=O)O1 [Example 9, (R)-3-(3-methyl-benzo[d]isoxazol-6-yl)-2-oxo-oxazolidine-5-carboxylic acid ethoxy-amide]
